Laboratory results taken from patent US11976083B2, “Inhibitors of peptidylarginine deiminases” (Gilead Sciences, Inc., priority 2020, dated 2024).

Target: T1, human PAD4 (Homo sapiens, UniProt Q9UM07)
T1 construct: human PAD4 (NM_012387), A2-P663, was PCR amplified; His-SUMO (N, cleaved yes); made in house; host or cells: E. coli BL21(DE3)
Assay: In vitro PAD4 BAEE biochemical assay
Conditions: BAEE substrate 3 mM, 5 nM PAD4, 2 mM calcium chloride; geometric mean of multiple experiments
In short: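 Fluorescence read-out (ex 405/em 535 nm) of isoindole formed from ammonia, o-phthalaldehyde and DTT after EDTA stop. Reaction: 5 nM PAD4, 2 mM CaCl2, 3 mM BAEE, 2 h, 25 °C, after 30 min enzyme–compound preincubation. Normalised to BB-Cl-Amidine (50 µM) and DMSO controls.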

T1 sequence (Q9UM07 2-663): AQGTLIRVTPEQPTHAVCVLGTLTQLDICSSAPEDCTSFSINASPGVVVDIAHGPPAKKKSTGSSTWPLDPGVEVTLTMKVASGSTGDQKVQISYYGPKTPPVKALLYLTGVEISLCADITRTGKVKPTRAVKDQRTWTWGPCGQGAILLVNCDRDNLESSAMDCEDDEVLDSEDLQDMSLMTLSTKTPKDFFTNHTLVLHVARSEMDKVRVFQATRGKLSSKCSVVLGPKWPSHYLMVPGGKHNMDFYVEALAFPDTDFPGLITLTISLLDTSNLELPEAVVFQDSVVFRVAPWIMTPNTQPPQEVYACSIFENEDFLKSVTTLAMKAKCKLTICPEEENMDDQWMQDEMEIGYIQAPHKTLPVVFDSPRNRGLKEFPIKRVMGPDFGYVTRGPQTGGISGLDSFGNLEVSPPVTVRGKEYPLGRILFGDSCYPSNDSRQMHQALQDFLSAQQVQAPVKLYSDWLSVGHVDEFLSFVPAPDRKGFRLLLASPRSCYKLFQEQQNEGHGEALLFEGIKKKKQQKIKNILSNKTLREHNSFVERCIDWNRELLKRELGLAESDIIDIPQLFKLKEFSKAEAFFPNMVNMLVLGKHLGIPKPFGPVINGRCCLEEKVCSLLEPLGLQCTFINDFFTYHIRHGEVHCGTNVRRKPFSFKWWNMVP

Row | Compound | IC50
1 | C[C@H]1NC(=O)c2cnc(Cl)cc2CCCCCn2c(-c3nc4cc(C(=O)N[C@H]5CNCC[C@@H]5F)c(F)cc4n3C3CC3)cc3ccc1nc32 [Example 357, 2-[(2~{R})-8-chloro-2-methyl-4-oxo-3,7,16,22-tetrazatetracyclo[14.5.2.0^{5,10}.0^{19,23}]tricosa-1(22),5,7,9,17,19(23),20-heptaen-17-yl]-1-cyclopropyl-6-fluoro-~ {N}-[(3~{S},4~{S})-4-fluoro-3-piperidyl]benzimidazole-5-carboxamide] | 0.031 µM
2 | COc1cc(C(=O)N2CC[C@@H](OC)[C@@H](N)C2)cc2nc(-c3cc4ccc5nc4n3CCCCCc3cnccc3C(=O)N[C@@H]5C)n(C)c12 [Example 358, (2~{R})-17-[5-[(3~{S},4~{R})-3-amino-4-methoxy-piperidine-1-carbonyl]-7-methoxy-1-methyl-benzimidazol-2-yl]-2-methyl-3,8,16,22-tetrazatetracyclo[14.5.2.0^{5,10}.0^{19,23}] tricosa-1(22),5,7,9,17,19(23),20-heptaen-4-one] | 0.083 µM
3 | COc1cc(C(=O)N2CC[C@@H](OC)[C@@H](N)C2)cc2nc(-c3cc4ccc5nc4n3CCCCCc3cnc(Cl)cc3C(=O)N[C@@H]5C)n(C)c12 [Example 359, (2~{R})-17-[5-[(3~{S},4~{R})-3-amino-4-methoxy-piperidine-1-carbonyl]-7-methoxy-1-methyl-benzimidazol-2-yl]-7-chloro-2-methyl-3,8,16,22-tetrazatetracyclo[14.5.2.0^{5,10}.0^{19,23}] tricosa-1(22),5,7,9,17,19(23),20-heptaen-4-one] | 0.104 µM
4 | COc1cc(C(=O)N2CC[C@@H](OC)[C@@H](N)C2)cc2nc(-c3cc4ccc5nc4n3CCCCCc3cccc(F)c3C(=O)N[C@@H]5C)n(C)c12 [Example 360, (2~{R})-17-[5-[(3~{S},4~{R})-3-amino-4-methoxy-piperidine-1-carbonyl]-7-methoxy-1-methyl-benzimidazol-2-yl]-6-fluoro-2-methyl-3,16,22-triazatetracyclo[14.5.2.0^{5,10}.0^{19,23}] tricosa-1(22),5,7,9,17,19(23),20-heptaen-4-one] | 0.058 µM
5 | COc1cc(C(=O)N2CCC[C@@H](N)C2)cc2nc(-c3cc4ccc5nc4n3CCCCCc3cccc(C)c3C(=O)N[C@@H]5C)n(C)c12 [Example 361, (2~{R})-17-[5-[(3~{R})-3-aminopiperidine-1-carbonyl]-7-methoxy-1-methyl-benzimidazol-2-yl]-2,6-dimethyl-3,16,22-triazatetracyclo[14.5.2.0^{5,10}.0^{19,23}] tricosa-1(22),5(10),6,8,17,19(23),20-heptaen-4-one] | 0.074 µM
6 | COc1cc(C(=O)N2CC[C@@H](OC)[C@@H](N)C2)cc2nc(-c3cc4ccc5nc4n3CCCCCc3cccc(C)c3C(=O)N[C@@H]5C)n(C)c12 [Example 362, (2~{R})-17-[5-[(3~{S},4~{R})-3-amino-4-methoxy-piperidine-1-carbonyl]-7-methoxy-1-methyl-benzimidazol-2-yl]-2,6-dimethyl-3,16,22-triazatetracyclo[14.5.2.0^{5,10}.0^{19,23}] tricosa-1(22),5(10),6,8,17,19(23),20-heptaen-4-one] | 0.137 µM
7 | COc1cc(C(=O)N[C@H]2CNCC[C@@H]2F)cc2nc(-c3cc4ccc5nc4n3CCCCCc3cccc(C)c3C(=O)N[C@@H]5C)n(C)c12 [Example 363, 2-[(2~{R})-2,6-dimethyl-4-oxo-3,16,22-triazatetracyclo[14.5.2.0^{5,10}.0^{19,23}]tricosa-1(22),5(10),6,8,17,19(23),20-heptaen-17-yl]-~{N}-[(3~{S},4~{S})-4-fluoro-3-piperidyl]-7-methoxy-1-methyl-benzimidazole-5-carboxamide] | 0.11 µM
8 | COc1cc(C(=O)N2CC[C@@H](OC)[C@@H](N)C2)cc2nc(-c3cc4ccc5nc4n3C[C@H]3C[C@H]3CCCC(C)(C)C(=O)N[C@@H]5C)n(C)c12 [Example 366, (3~{S),5~{R},12~{R})-18-[5-[(3~{S},4~{R})-3-amino-4-methoxy-piperidine-1-carbonyl]-7-methoxy-1-methyl-benzimidazol-2-yl]-9,9,12-trimethyl-1,11,20-triazatetracyclo[11.5.2.0^{3,5}.0^{16,19}] icosa-13(20),14,16(19),17-tetraen-10-one] | 0.12 µM
9 | COc1cc(C(=O)N[C@H]2CNCC[C@@H]2F)cc2nc(-c3cc4ccc5nc4n3C[C@H]3C[C@H]3CCCC(C)(C)C(=O)N[C@@H]5C)n(C)c12 [Example 367, ~{N}-[(3~{S},4~{S})-4-fluoro-3-piperidyl]-7-methoxy-1-methyl-2-[(3~{S},5~{R},12~{R})-9,9,12-trimethyl-10-oxo-1,11,20-triazatetracyclo[11.5.2.0^{3,5}.0^{16,19}]icosa-13(20),14,16(19),17-tetraen-18-yl]benzimidazole-5-carboxamide] | 0.082 µM
10 | COc1cc(C(=O)N[C@H]2CNCC[C@@H]2F)cc2nc(-c3cc4ccc5nc4n3CCCCC[C@H]3[C@H](C(=O)N[C@@H]5C)C3(F)F)n(C)c12 [Example 368, 2-[(2~{R},5~{R},7~{S})-6,6-difluoro-2-methyl-4-oxo-3,13,19-triazatetracyclo[11.5.2.0^{5,7}.0^{16,20}]icosa-1(19),14,16(20),17-tetraen-14-yl]- ~{N}-[(3~{S},4~{S})-4-fluoro-3-piperidyl]-7-methoxy-1-methyl-benzimidazole-5-carboxamide] | 0.034 µM
11 | COc1cc(C(=O)N[C@H]2CNCC[C@@H]2F)cc2nc(-c3cc4ccc5nc4n3CCCCC[C@@H]3[C@@H](C(=O)N[C@@H]5C)C3(F)F)n(C)c12 [Example 369, 2-[(2~{R},5~{S},7~{R})-6,6-difluoro-2-methyl-4-oxo-3,13,19-triazatetracyclo[11.5.2.0^{5,7}.0^{16,20}]icosa-1(19),14,16(20),17-tetraen-14-yl]- ~{N}-[(3~{S},4~{S})-4-fluoro-3-piperidyl]-7-methoxy-1-methyl-benzimidazole-5-carboxamide] | 0.037 µM
12 | COc1cc(C(=O)N2CC[C@@H](OC)[C@@H](N)C2)cc2nc(-c3cc4ccc5nc4n3C[C@H]3C[C@H]3CCC[C@](C)(C(F)(F)F)C(=O)N[C@@H]5C)n(C)c12 [Example 370, (3~{S),5~{R},9~{S},12~{R})-18-[5-[(3~{S},4~{R})-3-amino-4-methoxy-piperidine-1-carbonyl]-7-methoxy-1-methyl-benzimidazol-2-yl]-9,12-dimethyl-9-(trifluoromethyl)-1,11,20-triazatetracyclo[11.5.2.0^{3,5}.0^{16,19}] icosa-13(20),14,16(19),17-tetraen-10-one] | 0.163 µM
13 | COc1cc(C(=O)N[C@H]2CNCC[C@@H]2F)cc2nc(-c3cc4ccc5nc4n3C[C@H]3C[C@H]3CCC[C@](C)(C(F)(F)F)C(=O)N[C@@H]5C)n(C)c12 [Example 371, 2-[(3~{S},5~{R},9~{S},12~{R})-9,12-dimethyl-10-oxo-9-(trifluoromethyl)-1,11,20-triazatetracyclo[11.5.2.0^{3,5}.0^{16,19}]icosa-13(20),14,16(19),17-tetraen-18-yl]-~{N}-[(3~{S},4~{S})-4-fluoro-3-piperidyl]-7-methoxy-1-methyl-benzimidazole-5-carboxamide] | 0.222 µM
14 | COc1cc(C(=O)N2CC[C@@H](OC)[C@@H](N)C2)cc2nc(-c3cc4ccc5nc4n3C[C@H]3C[C@H]3CCC[C@@](C)(C(F)(F)F)C(=O)N[C@@H]5C)n(C)c12 [Example 372, (3~{S},5~{R},9~{R},12~{R})-18-[5-[(3~{S},4~{R})-3-amino-4-methoxy-piperidine-1-carbonyl]-7-methoxy-1-methyl-benzimidazol-2-yl]-9,12-dimethyl-9-(trifluoromethyl)-1,11,20-triazatetracyclo[11.5.2.0^{3,5}.0^{16,19}] icosa-13(20),14,16(19),17-tetraen-10-one] | 0.183 µM
15 | COc1cc(C(=O)NC2CNCC[C@@H]2F)cc2nc(-c3cc4ccc5nc4n3C[C@H]3C[C@H]3CCC[C@@](C)(C(F)(F)F)C(=O)N[C@@H]5C)n(C)c12 (stereo partly drawn) [Example 373, 2-[(3~{S},5~{R},9~{R},12~{R})-9,12-dimethyl-10-oxo-9-(trifluoromethyl)-1,11,20-triazatetracyclo[11.5.2.0^{3,5}.0^{16,19}]icosa-13(20),14,16(19),17-tetraen-18-yl]-~{N}-[(3~{S},4~{S})-4-fluoro-3-piperidyl]-7-methoxy-1-methyl-benzimidazole-5-carboxamide] | 0.254 µM
16 | COc1cc(C(=O)N2CC[C@@H](OC)[C@@H](N)C2)cc2nc(-c3cc4ccc5nc4n3CCCCCCC(F)(F)C(=O)N[C@@H]5C)n(C)c12 [Example 374, (11~{R})-17-[5-[(3~{S},4~{R})-3-amino-4-methoxy-piperidine-1-carbonyl]-7-methoxy-1-methyl-benzimidazol-2-yl]-8,8-difluoro-11-methyl-1,10,19-triazatricyclo[10.5.2.0^{15,18}]nonadeca-12(19),13,15(18),16-tetraen-9-one] | 0.121 µM
17 | COc1cc(C(=O)N[C@H]2CNCC[C@@H]2F)cc2nc(-c3cc4ccc5nc4n3CCCCCCC(F)(F)C(=O)N[C@@H]5C)n(C)c12 [Example 375, 2-[(11~{R})-8,8-difluoro-11-methyl-9-oxo-1,10,19-triazatricyclo[10.5.2.0^{15,18}]nonadeca-12(19),13,15(18),16-tetraen-17-yl]-~ {N}-[(3~{S},4~{S})-4-fluoro-3-piperidyl]-7-methoxy-1-methyl-benzimidazole-5-carboxamide] | 0.109 µM
18 | C[C@H]1NC(=O)C(C)(C)CCCCCCn2c(-c3nc4cc(C(=O)N[C@H]5CNCC[C@@H]5F)ccc4n3C3CC3)cc3ccc1nc32 [Example 376, 1-cyclopropyl-~{N}-[(3~{S},4~{S})-4-fluoro-3-piperidyl]-2-[(11~{R})-8,8,11-trimethyl-9-oxo-1,10,19-triazatricyclo[10.5.2.0^{15,18}]nonadeca-12(19),13,15(18),16-tetraen-17-yl]benzimidazole-5-carboxamide] | 0.082 µM
